Columns and labels:
[1] = test system: human umbilical vein endothelial cells (HUVECs); test: Growth (Alamar Blue) assay on HUVEC, Example 5; assay type: cell-based; conditions: Homo sapiens
Source text: (§1) The methods established and described in detail previously (Goodman and Hahn a; b) were used to measure the effect of combinations of integrin inhibitors and chemotherapeutics on carcinoma cell and human endothelial cell proliferation.
(§2) Points were run in duplicate or in triplicate. Reagent blanks, containing media plus Alamar Blue without cells, were run on each plate. Blank values were subtracted from test values and were routinely 5-10% of uninhibited control values.
(§3) 5.5 Methods of Evaluation and Statistics Chemotherapeutic agents and αv-integrin blockers were serially diluted alone or together (combination therapy). In some assays the chemotherapeutic agent was serially diluted alone or in combination with of alpha-v integrin blocker. Growth inhibition curves were plotted and a shift of the combination therapy curve to lower concentrations in relation to the single agent curves was interpreted as an additional effect, produced by combination versus monotherapy.
(§4) The αv-integrin competitive inhibitor Cilengitide (EMD 121974) was tested alone and in combination with vinorelbine in a serum growth stimulation assay using human carcinoma cells or human umbilical vein endothelial cells (HUVECs). In these assays cells are cultured in serum, or in an endothelial growth stimulation medium (Goodman & Hahn).

A549 = test: Serum growth stimulation assay on A549 NSCLC cells, Example 5; assay type: cell-based, human; conditions: for EC50: Homo sapiens, NSCLC A549, chemotherapeutic alone or + Cilengitide
Source text: as §1, §2, §3, §4

A498 = test: Cell proliferation assay on A498 renal carcinoma cells; assay type: cell-based, human; conditions: for EC50: Homo sapiens, Renal A498, chemotherapeutic alone or + Cilengitide
Source text: as §1, §2, §3, §4
Cilengitide concentration is 2 μM (constant).

Detroit 562 = test: Cell proliferation assay on SCCHN Detroit 562 cells; assay type: cell-based, human
[2] = in combination with 2 μM Cilengitide

| EC50 (A549) | EC50 (A498) | Structure (SMILES) | IC50 ([1]; agent alone) | IC50 [1, 2] | enhancement of growth inhibition by the presence of cilengitide (A549; A549) | enhancement of growth inhibition by the presence of cilengitide (A498; A498) | enhancement of growth inhibition by the presence of cilengitide (Detroit 562) |
| --- | --- | --- | --- | --- | --- | --- | --- |
| 8 nM | 100 nM | CC(=O)O[C@H]1C(=O)[C@@]2(C)[C@H]([C@H](OC(=O)c3ccccc3)[C@]3(O)C[C@H](OC(=O)[C@H](O)[C@@H](NC(=O)c4ccccc4)c4ccccc4)C(C)=C1C3(C)C)[C@]1(OC(C)=O)CO[C@@H]1C[C@@H]2O [Paclitaxel] | 10 nM | 0.05 nM |  |  |  |
| 8 nM | 60 nM | CCC1=C[C@@H]2CN(C1)Cc1c([nH]c3ccccc13)[C@@](C(=O)OC)(c1cc3c(cc1OC)N(C)[C@H]1[C@@](O)(C(=O)OC)[C@H](OC(C)=O)[C@]4(CC)C=CCN5CC[C@]31[C@@H]54)C2 [Vinorelbine] | 20 nM | 0.8 nM | synergistically enhanced | synergistically enhanced | synergistically enhanced |
